Data as given in patent publication US20190083521A1, “COMBINATION THERAPY FOR TREATING CANCER” (Epizyme, Inc., priority 2014, published 2019).
Structures can show the parent of a compound that is named as a salt.

Each compound was assayed on MOLM-13 (MLL-AF9) cells (assay: Combination proliferation assay with Compound A2 (CellTiter-Glo, Chou-Talalay CI)). Conditions: MOLM13; 7 Day Cotreatment Model.
Assay type: cell-based, human
Method: (§1) The acute myelogenous leukemia cell lines MV4-11 (MLL-AF4) and MOLM-13 (MLL-AF9) were obtained from American Type Culture Collection (ATCC; Rockville, Md.) and Deutsche Sammlung von Mikroorganismen and Zellkulturen (DSMZ; Braunschweig, Germany) respectively.
(§2) Studies were performed using MLL-rearranged cell lines in vitro to evaluate the anti-proliferative effect of a combination of two agents together on cell growth. Initial proliferation studies were performed to determine the IC50 of a given compound in each cell line. The cell counts were measured by ATP quantitation using the Promega Cell Titer Glo kit and luminescence values corresponded to the amount of ATP in a given well.
(§3) Compounds were evaluated for synergy in the co-treatment phase by testing the compounds in a concentration range which was bracketed around their IC50 values. The compounds were plated to a 96 well plate in a matrix format (FIG. 3) which includes increasing concentrations of each drug in the combination in a constant ratio, in addition to the effect of each compound alone in the study. Cells were seeded and grown in the log-linear phase for 3 or 7 days in the co-treatment phase. Minimum inhibition (DMSO alone) controls were used in each plate to calculate fraction affected (Fa) of a test well. DMSO concentration was kept at 0.1% v/v.
(§4) The drug combination analysis was performed utilizing the Chou-Talalay method Synergy was determined using the software package Calcusyn by Biosoft. The combination index (CI) is a quantitative term used to describe the level of synergy or antagonism in a given test system. A combination index less than one indicates synergy, and a CI greater than one indicates antagonism. Further, strong synergism is achieved when the CI value falls below 0.3.
(§5) The HP-D300 digital dispenser (Tecan) was used to dispense compounds in a combinatorial matrix. […] Cell viability was measured via ATP content using CellTiter-Glo® (Promega).
(§6) Viability was determined using CellTiter-Glo® (Promega).
Cell viability was measured via ATP content using CellTiter-Glo® (Promega).
as §2, with “Proliferation studies” for “Studies”, “MOLM-13, MV4-11 and SKM-1” for “MLL-rearranged”, “cancer cell killing” for “anti-proliferative”, “IC50 values” for “IC50”, “correspond” for “corresponded”
(§7) These studies were performed to evaluate both the combinatorial effect of compounds on cell killing and the durability of the effect by washing out one of the agents.
(§8) Compounds evaluated for synergy in the co-treatment phase were tested in a range which was bracketed around the IC50's. The compounds were plated to a 96 well plate in a matrix format which includes increasing concentrations of each drug in the combination in a constant ratio, in addition to the effect of each compound alone in the study. Cells were seeded and grown in the log-linear phase for 3 or 7 days in the cotreatment phase. Maximum and minimum inhibition (DMSO alone) controls were used in each plate to calculate fraction affected (Fa) of a test well. DMSO concentration was kept at 0.1% v/v. The drug combination analysis was performed utilizing the Chou-Talalay method. Synergy was determined using the software package Calcusyn by Biosoft. The combination index (CI) is the term used to describe the level of synergy or antagonism in a given test system. A combination index less than one indicates synergy, and a CI greater than one indicates antagonism.
(§9) The drug combination analysis was performed using the Chou-Talalay method. Graphs representing values of combination index (CI) versus Fractional effect (Fa) known as Fa-CI plots were generated and synergy was evaluated.

Row | Compound | Combination effect with Compound A2 (Table 5)
1 | NC1(c2ccc(-c3nc4ccn5c(=O)[nH]nc5c4cc3-c3ccccc3)cc2)CCC1 [MK2206] | Additive (additive effect by CI equal to 1)
2 | C[C@@H]1COCCN1c1cc(C2(S(C)(=O)=O)CC2)nc(-c2cccc3[nH]ccc23)n1 [AZ20] | Synergy (Drug synergy was statistically defined by CI values less than 1)
3 | Cn1c(=O)n(-c2ccc(C(C)(C)C#N)cc2)c2c3cc(-c4cnc5ccccc5c4)ccc3ncc21 [BEZ235] | Additive (additive effect by CI equal to 1)
4 | O=C(Nc1ccncc1)c1cc([N+](=O)[O-])ccc1Cl [Compound T0070907] | Additive (additive effect by CI equal to 1)

Same assay, conditions: MOLM-13 (MLL-AF9); 7 Day Cotreatment Model

Row | Compound | Combination effect with Compound A2 (Table 4)
5 | S=c1nc[nH]c2nc[nH]c12 [Mercaptopurine] | Additive--> Synergy
6 | CC1(C)CCC(CN2CCN(c3ccc(C(=O)NS(=O)(=O)c4ccc(NCC5CCOCC5)c([N+](=O)[O-])c4)c(Oc4cnc5[nH]ccc5c4)c3)CC2)=C(c2ccc(Cl)cc2)C1 [ABT-199] | Additive--> Synergy
7 | Nc1cccc2c1CN(C1CCC(=O)NC1=O)C2=O (stereo not shown) [Lenalidomide] | Combination Benefit
8 | CC(C)C[C@H](NC(=O)[C@H](Cc1ccccc1)NC(=O)c1cnccn1)B(O)O [Velcade, bortezomib] | Combination Benefit
9 | O=C(CCCCCCC(=O)Nc1ccccc1)NO [Vorinostat] | Additive/Synergy

These compounds were tested on MV4-11 (MLL-AF4) cells in the same assay as above. Conditions: MV4-11; 7 Day Cotreatment (Example 1).
Assay type: cell-based, human
Method: as §1, §2, §3, §4, §5, §6
as §2, with “Proliferation studies” for “Studies”, “MOLM-13, MV4-11 and SKM-1” for “MLL-rearranged”, “cancer cell killing” for “anti-proliferative”, “IC50 values” for “IC50”, “correspond” for “corresponded”
as §7, §8
as §9, with “evaluated. Drug synergy was statistically defined by CI values less than 1, antagonism by CI>1 and additive effect by CI equal to 1.” for “evaluated.”

Row | Compound | Combination effect with Compound A2
10 | O=C1c2c(O)ccc(O)c2C(=O)c2c(NCCNCCO)ccc(NCCNCCO)c21 [Mitoxantrone] | Synergy (A combination index less than one indicates synergy)

Same assay, conditions: MV4-11; 7 Day Cotreatment Model

Row | Compound | Combination effect with Compound A2 (Table 5)
11 | CC[C@@H]1C(=O)N(C)c2cnc(Nc3ccc(C(=O)N[C@H]4CC[C@H](N5CCN(CC6CC6)CC5)CC4)cc3OC)nc2N1C(C)C [Volasertib] | Antagonstic

The compounds below were run on SKM-1 cells (assay: Example 6 combination screen: 300 nM EPZ-5676 pre-treatment, second compound 72 h, ATPLite, IC50 shift). Conditions: not given.
Assay type: cell-based, human
Method: Cells were then equilibrated in incubators for 24 hours before treatment with a second compound. Treated assay plates were incubated with a second compound for 72 hours. After this time, plates were developed for endpoint analysis using ATPLite to measure ATP content, which is used as an indicator of cell viability.
“N/D” means that IC50 of the second compound could not be determined for both conditions.

Row | Compound | Summary of Combination Studies: SKM-1
12 | Arsenic Trioxide | 2.0

Same assay, conditions: SKM-1 cells; 300 nM EPZ-5676 pre-treatment (4 + 3 days) vs DMSO, then 2nd compound 72 h; ATPLite; IC50 shift of 2nd compound

Row | Compound | Summary of Combination Studies: SKM-1
13 | NC1(c2ccc(-c3nc4ccn5c(=O)[nH]nc5c4cc3-c3ccccc3)cc2)CCC1 [MK2206] | Synergy (considered synergistic if the IC50 value of the second compound decreased by 2-fold or more when EPZ-5676 was added as compared to the DMSO control)
14 | COc1ccc(-c2ccc3c(N4CCOC[C@@H]4C)nc(N4CCOC[C@@H]4C)nc3n2)cc1CO [AZD 8055] | Synergy (considered synergistic if the IC50 value of the second compound decreased by 2-fold or more when EPZ-5676 was added as compared to the DMSO control)
15 | C#Cc1cccc(Nc2ncnc3cc(OCCOC)c(OCCOC)cc23)c1 [Erlotinib Hydrochloride] | Synergy (considered synergistic if the IC50 value of the second compound decreased by 2-fold or more when EPZ-5676 was added as compared to the DMSO control)
16 | COc1ccc(CCc2nc3cc(-c4c(C)noc4C)ccc3n2C[C@H](C)N2CCOCC2)cc1Cl [SGC-CBP30] | Synergy (considered synergistic if the IC50 value of the second compound decreased by 2-fold or more when EPZ-5676 was added as compared to the DMSO control)
17 | O=C(Nc1cccc(Nc2ncc(Br)c(NCCc3cnc[nH]3)n2)c1)N1CCCC1 [BX-912] | Synergy (considered synergistic if the IC50 value of the second compound decreased by 2-fold or more when EPZ-5676 was added as compared to the DMSO control)
18 | C=C[C@@]1(C)CC(=O)[C@]2(O)[C@@]3(C)[C@@H](O)CCC(C)(C)[C@@H]3[C@H](OC(=O)CCN(C)C)[C@H](OC(C)=O)[C@@]2(C)O1.Cl [NKH 477] | Synergy (considered synergistic if the IC50 value of the second compound decreased by 2-fold or more when EPZ-5676 was added as compared to the DMSO control)
19 | CS(=O)(=O)N1CCN(Cc2cc3nc(-c4cccc5[nH]ncc45)nc(N4CCOCC4)c3s2)CC1 [GDC-0941] | Synergy (considered synergistic if the IC50 value of the second compound decreased by 2-fold or more when EPZ-5676 was added as compared to the DMSO control)
20 | CC(C)C[C@H](NC(=O)CNC(=O)c1cc(Cl)ccc1Cl)B(O)O [MLN2238] | Synergy (considered synergistic if the IC50 value of the second compound decreased by 2-fold or more when EPZ-5676 was added as compared to the DMSO control)
21 | COc1ccc(Cc2nccc3cc(OC)c(OC)cc23)cc1OC [Papaverine Hydrochloride] | Synergy (considered synergistic if the IC50 value of the second compound decreased by 2-fold or more when EPZ-5676 was added as compared to the DMSO control)
22 | CC(C)CC(=O)Nc1[nH]nc2c1CN(C(=O)C1CCN(C)CC1)C2(C)C [PHA-793887] | Synergy (considered synergistic if the IC50 value of the second compound decreased by 2-fold or more when EPZ-5676 was added as compared to the DMSO control)
23 | CCN(CC)CCNC(=O)c1c(C)[nH]c(/C=C2\C(=O)Nc3ccc(F)cc32)c1C [Sunitinib Malate] | 2.0
24 | N#Cc1c(C2CCNCC2)cc(-c2c(O)cccc2OCC2CC2)nc1N [IKK-2 Inhibitor VIII] | Synergy (considered synergistic if the IC50 value of the second compound decreased by 2-fold or more when EPZ-5676 was added as compared to the DMSO control)
25 | CN(C)C(=O)c1cc2cnc(Nc3ccc(N4CCNCC4)cn3)nc2n1C1CCCC1 [LEE011] | Synergy (considered synergistic if the IC50 value of the second compound decreased by 2-fold or more when EPZ-5676 was added as compared to the DMSO control)
26 | CN(C)CC[C@H](CSc1ccccc1)Nc1ccc(S(=O)(=O)NC(=O)c2ccc(N3CCN(Cc4ccccc4-c4ccc(Cl)cc4)CC3)cc2)cc1[N+](=O)[O-] [ABT-737] | Synergy (considered synergistic if the IC50 value of the second compound decreased by 2-fold or more when EPZ-5676 was added as compared to the DMSO control)
27 | CC1=C(/C=C/C(C)=C/C=C/C(C)=C/C(=O)O)C(C)(C)CCC1 [Tretinoin] | Synergy (considered synergistic if the IC50 value of the second compound decreased by 2-fold or more when EPZ-5676 was added as compared to the DMSO control)
28 | COCc1c(C(C)C)nc(C(C)C)c(/C=C/[C@@H](O)C[C@@H](O)CC(=O)O)c1-c1ccc(F)cc1 [Cerivastatin Sodium] | Synergy (considered synergistic if the IC50 value of the second compound decreased by 2-fold or more when EPZ-5676 was added as compared to the DMSO control)
29 | C[C@H]1C[C@@H]2[C@H]([C@@H](O)C[C@@]3(C)[C@H]2CC[C@]3(O)C(=O)CO)[C@@]2(C)C=CC(=O)C=C12 [Methylprednisolone] | Synergy (considered synergistic if the IC50 value of the second compound decreased by 2-fold or more when EPZ-5676 was added as compared to the DMSO control)
30 | Cc1sc2c(c1C)C(c1ccc(Cl)cc1)=N[C@@H](CC(=O)Nc1ccc(O)cc1)c1nnc(C)n1-2 [OTX015] | Synergy (considered synergistic if the IC50 value of the second compound decreased by 2-fold or more when EPZ-5676 was added as compared to the DMSO control)
31 | C=C(c1ccc(C(=O)O)cc1)c1cc2c(cc1C)C(C)(C)CCC2(C)C [Bexarotene] | Synergy (considered synergistic if the IC50 value of the second compound decreased by 2-fold or more when EPZ-5676 was added as compared to the DMSO control)
